According to patent US20150004148A1, “METHODS AND COMPOSITIONS FOR INCREASING RNA INTERFERENCE” (DEVGEN N.V., priority 2008, published 2015):

What was measured:
Type in all cases: in vivo
[1] = tested on: Colorado potato beetle (Leptinotarsa decemlineata) larvae; test: Colorado potato beetle (CPB) larvae bioassay on artificial diet, test solution applied topically to the diet
Experimental: The bioassay was typically performed in an 48-well-plate containing 500 μl of artificial diet per well. Thirty μl of test solution consisting of 5 μl Ld105 (SEQ ID NO 1) dsRNA (starting concentration 10 ng/μl) and 25 μl of dextran sulfate (of varying concentrations in Milli-Q water) was applied topically to the diet and the diet left to dry for about two hours in the laminar flow at room temperature. One 2nd stage CPB larva was placed in each well. Per treatment, 24 insects were tested. The plates were incubated in the insect rearing chamber at 25° C. and ±50% RH, with a photoperiod of 16 hours light/8 hours dark. Mortality was scored over the course of the experiment. The Kaplan-Meier estimator was used to plot the survival curves and the survival curves were compared using the logrank χ^2 test.
In a CPB bioassay (set-up described in Example 1), target Ld105 dsRNA (SEQ ID NO:1) was tested at one quantity (50 ng) in the presence of fucoidan (average Mw±20 kDa; Sigma cat. no. F5631) at different amounts ranging from 50 ng to 50 μg per larva.
In a CPB bioassay (set-up described in Example 1), target Ld105 dsRNA (SEQ ID NO:1) was tested at different amounts ranging from 1 pg to 1 μg in the presence of 50 μg dextran sulfate per larva.
In a CPB bioassay (set-up described in Example 1), target Ld105 dsRNA (SEQ ID NO:1) was tested at one quantity (50 ng) in the presence of heparin (MP Biomedicals cat. no. 194114) at different amounts ranging from 50 ng to 50 μg per larva.
In a CPB bioassay (set-up described in Example 1), target Ld105 dsRNA (SEQ ID NO:1) was tested at one quantity (50 ng per larva) in the presence of 50 μg chondroitin sulfate (Sigma cat. no. C3788) or hyaluronic acid (Sigma cat. no. 53747).
Preparation of the recombinant bacteria is described in the international publication WO 2007/080127 (see pages 55-56).
In one CPB bioassay (set-up described in Example 1), different target dsRNAs (SEQ ID NO:1, 2, 3, 4; Ld105 dsRNA=SEQ ID NO:1, Ld013=SEQ ID NO: 2, Ld009=SEQ ID NO: 3 and Ld248=SEQ ID NO: 4) were tested at one quantity (100 ng) in the presence of dextran sulfate (50 μg).

[2] = tested on: nematode Caenorhabditis elegans; test: C. elegans soaking assay, counting of life stages; settings: Example 13
Experimental: The effects of dextran sulfate on the RNAi-induced phenotypes of a non-insect species, namely, the nematode Caenorhabditis elegans, were tested in a soaking assay. Wild-type worms were chunked from a stock plate and adults were bleached to obtain a well-staged population. The assay was set up in a V-shaped 96-well plate, with each well containing 20 μl of solution comprising 50 ng/μl target rps-14 dsRNA (SEQ ID NO:6), various concentrations of dextran sulfate (0 mg/ml, 0.25 mg/ml, 0.50 mg/ml and 1 mg/ml) and 50 first-larval stage nematodes. Each treatment was performed in triplicate. The plate containing the worms was incubated at 25° C. for overnight soaking After 17 hours, the worms were transferred to 3.5 cm agar-plates seeded with OP50 E. coli and incubated at 20° C. for a further 2 days. After this growing period, the assay was assessed by counting the different life stages for all treatments.

[3] = tested on: Colorado potato beetle (Leptinotarsa decemlineata) larvae; test: Alternative CPB bioassay using treated potato leaf discs; settings: Example 10; 50 μg dextran sulfate alone on leaf discs
Experimental: An alternative bioassay was used using potato leaf discs rather than artificial diet as food source for CPB. Discs of approximately 0.9 cm in diameter (or 0.64 cm^2) were cut out off leaves of 4- to 6-week-old potato plants using a suitably sized cork borer. Treated leaf discs were prepared by applying 2 μl of a solution comprising 100 ng target Ld105 dsRNA (SEQ ID NO:1) and 50 μg dextran sulfate on the adaxial leaf surface. The leaf discs were allowed to dry and placed individually in 24 wells of a 48-well multiwell plate. A single second-larval stage CPB was placed into each well and the plate covered with a plastic lid. Twenty-four larvae were tested per treatment. […] After 24 hours, the larvae were transferred to fresh, untreated leaf discs and placed in the chamber for a further 24 hours. This was repeated once after which the CPB larvae were transferred on to artificial diet where they were kept until the end of the bioassay.

[4] = tested on: Colorado potato beetle (Leptinotarsa decemlineata) larvae; test: CPB sequential feeding assay (priming with dextran sulfate, then dsRNA) on artificial diet; settings: Example 11; DS/DS treatment, 50 μg dextran sulfate
Experimental: In one CPB bioassay, target Ld105 dsRNA (SEQ ID NO:1) was tested at one quantity (1 μg) following a short exposure to dextran sulfate only. The bioassay set-up was similar to that described in Example 1, except that the larvae were first fed diet with topically applied dextran sulfate (DS; 50 μg), or water, for two full days before transferring them to fresh diet with topically applied Ld105 dsRNA, dextran sulfate or water only, for the remainder of the assay.

[5] = Example 6, heparin or dextran sulfate alone, no dsRNA
[6] = 50 ng/μl rps-14 dsRNA, alone or plus 1 mg/ml dextran sulfate, 17 hours soaking, then 2 days growing

“dextran sulfate [dextran sulfate (±1400 kDa)]” was tested, and the toxicity to larvae ([1]; Example 5, dextran sulfate (±1400 kDa) alone, 50 ng to 50 μg per larva) was “Very little or no toxicity”.
For heparin [reference compound], the toxicity to larvae [1, 5] was “Very little or no toxicity”.
For “rps-14 dsRNA: C. elegans target rps-14 double-stranded RNA, SEQ ID NO:6”, the “number of L3 stage larvae” value [2, 6] was 11%, the “number of L4 stage larvae” value [2, 6] was 19% and the number of adults [2, 6] was 63%. For the same substance, the “number of dead larvae” value [2, 6] was 7%.
For fucoidan, the toxicity to larvae ([1]; Example 2, fucoidan alone, 50 ng to 50 μg per larva) was “Very little or no toxicity”.
With “dextran sulfate [dextran sulfate (±8 kDa)]” the toxicity to larvae [3] was “Very little toxicity”, the toxicity to larvae ([1]; Example 1, dextran sulfate (±8 kDa) alone, 50 ng to 50 μg per larva, no dsRNA) was “Very little or no toxicity” and the toxicity to larvae ([1]; Example 4, 50 μg dextran sulfate (±8 kDa) alone) was “Very little or no toxicity”. The toxicity to larvae [1, 5] was “Very little or no toxicity”, the toxicity to nematodes ([2]; dextran sulfate alone (data not shown)) was “No toxicity” and the toxicity to larvae [4] was “Very little or no toxicity”.
